The term IC50 denotes the midpoint of a concentration-inhibition curve. Lower therefore signals inhibition by little substance.

This test relates to PMS1. The test can be described thus: Mini-Gene Reporter Assay—PMS1 (firefly luciferase mini-gene reporter transiently transfected into HEK293 cells). The following applies: Homo sapiens, mini-gene firefly luciferase reporter in HEK293 cells; for activation at 5 µM: read-out: PMS1 % Effect at 5 uM. In kind it is cell-based. An outline of the steps:
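Luminescence (RLU) read-out of exon inclusion: compound dilutions, tested in duplicate, act on transiently transfected HEK293 cells carrying a firefly luciferase reporter fused downstream of the PMS1 skipped-exon region. Potency derived by Levenberg-Marquardt curve fitting, with percent effect at 5 μM.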

Some results are limits rather than exact numbers.

As for `CCOc1cn2nc(C)cc2cc1C(=O)Nc1cnc(N2CCCNCC2)nc1` [Compound 600], the activation at 5 µM was below 50%.

As for `CCOc1cn2nc(C)cc2cc1C(=O)Nc1cnc(N2CCCC(CCC3CCCNC3)C2)nc1` (stereo not shown) [Compound 603], the activation at 5 µM was below 50%.

Regarding `CCOc1cn2nc(C)cc2cc1C(=O)Nc1cnc(N2CCNCC3(CC3)C2)nc1` [Compound 604], the activation at 5 µM is below 50%.

On to `CCOc1cn2nc(C)cc2cc1C(=O)Nc1cnc(N2CC3C4CCC(NC4)C3C2)nc1` (stereo not shown) [Compound 605], for which the activation at 5 µM is below 50%.

For the molecule `CCOc1cn2nc(C)cc2cc1C(=O)Nc1cnc(N2CCC(C3NCC3(C)C)CC2)nc1` (stereo not shown) [Compound 606], the activation at 5 µM was below 50%.

Turning to `CCOc1cn2nc(C)cc2cc1C(=O)Nc1cnc(N2CCC(CCN3CCNCC3)CC2)nc1` [Compound 607], the activation at 5 µM is below 50%.

On to `CCOc1cn2nc(C)cc2cc1C(=O)Nc1cnc(N2CCNC(CS(C)(=O)=O)C2)nc1` (stereo not shown) [Compound 608], for which the activation at 5 µM is below 50%.

On to `CCOc1cn2nc(C)cc2cc1C(=O)Nc1cnc(N2CCC(C(O)C3CCNCC3)CC2)nc1` (stereo not shown) [Compound 609], for which the activation at 5 µM was below 50%.

With `CCOc1cn2nc(C)cc2cc1C(=O)Nc1cnc(N2CCC(C3CCCNC3)CC2)nc1` (stereo not shown) [Compound 610], the activation at 5 µM was below 50%.

On to `CCOc1cn2nc(C)cc2cc1C(=O)Nc1cnc(N2CCC3CCNCC3C2)nc1` (stereo not shown) [Compound 611], for which the activation at 5 µM is below 50%.

Regarding `CCOc1cn2nc(C)cc2cc1C(=O)Nc1cnc(N2CC(NC)C3(CC3)C2)nc1` (stereo not shown) [Compound 612], the activation at 5 µM was below 50%.

For `CCOc1cn2nc(C)cc2cc1C(=O)Nc1cnc(N2CCOC3(CCCNC3)C2)nc1` (stereo not shown) [Compound 613], the activation at 5 µM is below 50%.

On to `CCOc1cn2nc(C)cc2cc1C(=O)Nc1cnc(N2CCC(CC[C@@H]3CCCN3)CC2)nc1` [Compound 615], for which the activation at 5 µM was below 50%.

On to `CCOc1cn2nc(C)cc2cc1C(=O)Nc1cnc(N2CC[C@@H](C)[C@@H](NC)C2)nc1` [Compound 617], for which the activation at 5 µM was below 50%.

As to `CCOc1cn2nc(C)cc2cc1C(=O)Nc1cnc(N2CCC(COC3CCNC3)CC2)nc1` (stereo not shown) [Compound 618], the activation at 5 µM is below 50%.

On to `CCOc1cn2nc(C)cc2cc1C(=O)Nc1cnc(N2CC[C@@H]3CNC[C@@H]3CC2)nc1` [Compound 619], for which the activation at 5 µM is below 50%.

`CCNCC1CCN(c2ncc(NC(=O)c3cc4cc(C)nn4cc3OCC)cn2)CC1` [Compound 623]: the activation at 5 µM was below 50%.

In the case of `CCOc1cn2nc(C)cc2cc1C(=O)Nc1cnc(N2CC3(CCNCC3)C2)nc1` [Compound 625], the activation at 5 µM fell in the range of 50 to 75%.

Take `COc1cc2nc(C)cn2cc1C(=O)Nc1ccc(N2CCNCC2C(F)F)cc1F` (stereo not shown) [Compound 627]: the IC50 lay in the range of 1000 to 10000 nM.

`COc1cc2nc(C)cn2cc1C(=O)Nc1ccc(N2C[C@@H]3C[C@H]2CN3)cc1F` [Compound 628] came in with an IC50 below 1000 nM.

In turn, `COc1cc2nc(C)cn2cc1C(=O)Nc1ccc(N2CC[C@@H]3NCC[C@@H]3C2)cc1F` [Compound 629] showed an IC50 below 1000 nM.

In the case of `COc1cc2nc(C)cn2cc1C(=O)Nc1ccc(N2C[C@H]3CNCC[C@H]3C2)cc1F` [Compound 630], the concentration for half-maximal inhibition (IC50) is below 1000 nM.

For `CCOc1cc2nc(C)cn2cc1C(=O)Nc1cnc(N2CCC(N)(CC)CC2)nc1` [Compound 639], the activation at 5 µM is above 75%.

`CCOc1cc2nc(C)cn2cc1C(=O)Nc1cnc(N2CC(C)NCC2C)nc1` (stereo not shown) [Compound 644]: the activation at 5 µM was in the range of 50 to 75%.

With `CCOc1cc2nc(C)cn2cc1C(=O)Nc1cnc(N2C[C@H]3CNC[C@H]3C2)nc1` [Compound 646], the activation at 5 µM fell in the range of 50 to 75%.

`CCOc1cc2nc(C)cn2cc1C(=O)Nc1cnc(N2CCC(NC)CC2)nc1` [Compound 648]: the activation at 5 µM is below 50%.

For the molecule `CCOc1cc2nc(C)cn2cc1C(=O)Nc1cnc(N(C)C2CCNCC2)nc1` [Compound 649], the activation at 5 µM lay in the range of 50 to 75%.

For `CCOc1cc2nc(C)cn2cc1C(=O)Nc1cnc(N2CCCNCC2)nc1` [Compound 653], the activation at 5 µM was below 50%.
